Reference: US12435059B2, “AMP-activated protein kinase inhibitors and methods of making and using the same” (The Regents of the University of Colorado, priority 2019, dated 2025)
Like-named read-outs stand apart in the source and are kept apart here.

Assays:
AMPK(α2) [1] = target: T1, AMPK(α2) (Homo sapiens (Human), UniProt P54646); assay: LANCE Eu TR-FRET recombinant kinase assay, AMPK(α2); type: biochemical; conditions: mean±S.D. (n=3); ATP 20 μM
Protocol: Assays were performed at 25° C. in a reaction mixture consisting of 2.5 μL serially diluted inhibitor solution, 2.5 μL kinase, 2.5 μL ATP and 2.5 μL substrate. Reagents were incubated for 1 hr before the reaction was halted through the addition of EDTA (10 mM) after which Eu anti-phospho-CREB (Ser133) antibody (PerkinElmer) was added at a final concentration of 2 nM for 1 hr. […] (n=3)).

KIT-autoinhibited = KIT-autoinhibited (Homo sapiens (Human), UniProt P10721); assay: Kinome binding analysis at 100 nM, KIT-autoinhibited; conditions: read-out: Percentage inhibition at 100 nM, KIT-autoinbibited
[2] = target: JAK1-JH2 domain pseudokinase (Homo sapiens (Human), UniProt P23458); assay: Kinome binding analysis at 100 nM, JAK1 JH2 pseudokinase; conditions: read-out: Percentage inhibition at 100 nM, JAKI JH2-pseudokinase
cellular AMPK = assay: p-ACC(Ser79) ELISA in K562 cell lysates (glucose-free media, 2-DG); type: cell-based; conditions: K562, dose response, FIG. 2B
Protocol: FIGS. 2A and 2B are a series of graphs showing the effects of compounds of the present disclosure on cellular levels of p-ACC(Ser79) in K562 cells. FIG. 2A Quantitative ELISA determination of p-ACC(Ser79) levels in K562 lysates (1.0 mg mL^−1 total protein) following growth in glucose-free media for 24 h, 2-DG (12 mM) treatment for 1 h followed by treatment with inhibitor compounds at 5.0 μM for 2 h. Relative p-ACC levels are reported as a percentage of levels resultant from DMSO control treatment. […] Cells were collected, washed with PBS and lysed on ice in lysis buffer containing 1% Triton X (Cell Signaling). Lysates were someated (1×5 seconds) and centrifuged for 10 minutes at 10,000 rpm and 4° C., and the protein concentration in supernatants was determined by Lowry assay. Lysates were diluted with ELISA PathScan® sample diluent to a final volume of 100 μL and protein concentration of 1.0 mg/ml prior to use. The concentration of p-ACC (Ser79) was determined using an enzyme-linked immunosorbent assay according to recommended protocol (Cell Signaling, ELISA PathScan® phospho-Acetyl-CoA Carboxylase (Ser79)) and expressed as a relative percentage of the DMSO control.
The AMPK substrate ACC is used as a biomarker for the relative activity of AMPK, and the levels of p-ACC(Ser79) were measured by ELISA in the absence or presence of the compounds to determine the compounds' effects on cellular AMPK activity. The presence of total AMPK, p-AMPK, total ACC, and p-ACC was measured by Western blot in a panel of leukemic cell lines grown in glucoe competent or glucose-free media. […] The cell lysates from K562 cells grown in glucose-free media in the presence 2-DG and treated with compounds of the present disclosure were analyzed by the p-ACC(Ser79) ELISA to determine the effect of the compounds on cellular AMPK activity.

AMPK(α2) [3] = target: T1, AMPK(α2); assay: Kinome binding analysis at 100 nM, AMPK(α2); conditions: AMPK-alpha2
AMPKα1 = AMPKα1 (Homo sapiens (Human), UniProt Q13131); assay: Kinome binding analysis at 100 nM, AMPK(α1); conditions: read-out: Percentage inhibition at 100 nM, AMPK(α1)
CSF1R = CSF1R (Homo sapiens (Human), UniProt P07333); assay: Kinome binding analysis at 100 nM, CSF1R; conditions: read-out: Percentage inhibition at 100 nM, CSF1R
VEGFR2 = VEGFR2 (Homo sapiens (Human), UniProt P35968); assay: Kinome binding analysis at 100 nM, VEGFR2; conditions: read-out: Percentage inhibition at 100 nM, VEGFR2
468 kinases [4] = target: 468 kinases (Homo sapiens, UniProt P11802); assay: biochemical; type: binding; conditions: read-out: % Inhibition @ 100 nM
468 kinases [5] = target: 468 kinases (Homo sapiens, UniProt P09769); assay: biochemical; type: binding; conditions: FGR; read-out: % Inhibition @ 100 nM
468 kinases [6] = target: 468 kinases (Homo sapiens, UniProt Q8NI60); assay: biochemical; type: binding; conditions: ADCK3; read-out: % Inhibition @ 100 nM
468 kinases [7] = target: 468 kinases (Homo sapiens, UniProt P00533, G719C); assay: biochemical; type: binding; conditions: EGFR(G719C); read-out: % Inhibition @ 100 nM
468 kinases [8] = target: 468 kinases (Homo sapiens, UniProt Q9UQB9); assay: biochemical; type: binding; conditions: AURKC; read-out: % Inhibition @ 100 nM
468 kinases [9] = target: 468 kinases (Homo sapiens, UniProt Q9BUB5); assay: biochemical; type: binding; conditions: MKNK1; read-out: % Inhibition @ 100 nM
468 kinases [10] = target: 468 kinases (Homo sapiens, UniProt Q9BYP7); assay: biochemical; type: binding; conditions: WNK3; read-out: % Inhibition @ 100 nM
468 kinases [11] = target: 468 kinases (Homo sapiens, UniProt O14730); assay: biochemical; type: binding; conditions: RIOK3; read-out: % Inhibition @ 100 nM
KDR = KDR (Homo sapiens (Human), UniProt P35968); assay: LanthaScreen Eu TR-FRET KDR competitive binding assay; conditions: read-out: IC50 (nM) KDR; mean±S.D. (n=3); competitive binding
K562 cells = assay: Annexin-V/DAPI flow cytometry viability of K562 cells under hypoxic culture conditions; type: cell-based; conditions: K562, 5% O2, RPMI-1640, 72 hours
Protocol: FIG. 4 are a series of graphs showing the cell viability of K562 cells grown under hypoxic culture conditions and treated with compounds of the present disclosure. […] After pre-incubation cells were treated with the compounds of the present disclosure for 24 hours (left panel) and 72 hours (right panel) in a hypoxic environment. After treatment cells, were stained with Annexin-V-APC and DAPI in annexin buffer, incubated for 15 minutes at 4° C. and analyzed immediately by flow cytometry (Celesta, BD Bioscience). Viable cells were scored as Annexin V-negative and DAPI-negative population. A high-throughput sampler (BD Bioscience) was used to allow automated sampling processes. (n=3, error bars: ±S.D.).

BTK = BTK (Homo sapiens (Human), UniProt Q06187); assay: Kinome binding analysis at 100 nM, BTK; conditions: for BTK inhibition, in words: 100 nM

| SMILES | IC50 (AMPK(α2) [1]) [nM] | inhibition at 0.1 µM (KIT-autoinhibited) [%] | inhibition at 0.1 µM [2] [%] | p-ACC level reduction across concentration range compared with sunitinib (cellular AMPK) | inhibition at 0.1 µM (AMPK(α2) [3]) [%] | inhibition at 0.1 µM (AMPKα1) [%] | inhibition at 0.1 µM (CSF1R) [%] | inhibition at 0.1 µM (VEGFR2) [%] | inhibition at 0.1 µM (468 kinases [4]; CDK4-cyclinD1) [%] | inhibition at 0.1 µM (468 kinases [4]; CDK4-cyclinD3) [%] | inhibition at 0.1 µM (468 kinases [4]; CDK4) [%] | inhibition at 0.1 µM (468 kinases [5]) [%] | inhibition at 0.1 µM (468 kinases [6]) [%] | inhibition at 0.1 µM (468 kinases [7]) [%] | inhibition at 0.1 µM (468 kinases [8]) [%] | inhibition at 0.1 µM (468 kinases [9]) [%] | inhibition at 0.1 µM (468 kinases [10]) [%] | inhibition at 0.1 µM (468 kinases [11]) [%] | IC50 (KDR) [nM] | Cell viability under hypoxic conditions after 72 hours (K562 cells) | other results |
| --- | --- | --- | --- | --- | --- | --- | --- | --- | --- | --- | --- | --- | --- | --- | --- | --- | --- | --- | --- | --- | --- |
| CCN(CC)CCNC(=O)c1c(C)[nH]c(/C=C2\C(=O)Nc3ccc(CCO)cc32)c1C [Compound No. 10, (Z)—N-(2-(Diethylamino)ethyl)-5-((5-(2-hydroxyethyl)-2-oxoindolin-3-ylidene)methyl)-2,4-dimethyl-1H-pyrrole-3-carboxamide] | 20.5 ± 2.7 | 28 | 54 | significant reduction of p-ACC levels compared to sunitinib at all concentrations tested except for 50 μM | 64 | 49 | 24 | 55 | 5 | 0 | 0 | 16 | 8 | 32 | 40 | 3 | 9 | 93.9 | 848 ± 41 | marked decrease in cell viability | BTK inhibition, in words (BTK): no observable effect |
| CCN(CC)CCNC(=O)c1c(C)[nH]c(/C=C2\C(=O)Nc3ccc(CCC(N)=O)cc32)c1C [Compound No. 16, (Z)-5-((5-(3-Amino-3-oxopropyl)-2-oxoindolin-3-ylidene)methyl)-N-(2-(diethylamino)ethyl)-2,4-dimethyl-1H-pyrrole-3-carboxamide] | 60.7 ± 16.5 | 0 | 41 | significant reductions at both 3.125 μM and 12.5 μM | 35 | 29 | 18 | 19 | 29 | 16 | 9 | 32 | 8 | 9 | 98.4 | 31 | 7 | 100 | 3820 ± 530 | no measurable impact on cell viability | BTK inhibition, in words (BTK): no observable effect; inhibition at 0.1 µM (BTK; read-out: Percentage inhibition at 100 nM, BTK): 0% |
